Measured values published in PubChem BioAssay (NCI).
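Dose response: 5 concentrations. Exposure: 48 h. Format: 96-well plates. Endpoint: linear interpolation; highest concentration if not reached. At the TGI there is no net growth.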 Where a SMILES comes first, the peptide text is derived from it. The star is where a group is joined. Boc = CC(C)(C)OC(=O)*; Bn = c1ccc(C*)cc1

Tests used:
Assay in all cases: growth of human tumour cells (NCI), 48 h
A549 NSCLC = system: A549 NSCLC
ACHN renal = system: ACHN renal
HOP-92 NSCLC = system: HOP-92 NSCLC
NCI-H460 lung = system: NCI-H460 lung
SK-OV-3 ovarian = system: SK-OV-3 ovarian
TK-10 renal = system: TK-10 renal
UACC-62 melanoma = system: UACC-62 melanoma

| SMILES | TGI (A549 NSCLC) [µM] | TGI (ACHN renal) [µM] | TGI (HOP-92 NSCLC) [µM] | TGI (NCI-H460 lung) [µM] | TGI (SK-OV-3 ovarian) [µM] | TGI (TK-10 renal) [µM] | TGI (UACC-62 melanoma) [µM] |
| --- | --- | --- | --- | --- | --- | --- | --- |
| Cc1ccc2nc(-c3ccc(-c4nc5ccc(C)cc5o4)c(O)c3)oc2c1 | > 100 | > 100 | > 100 | > 100 | > 100 | > 100 | > 100 |
| CN1C(=O)C(C#N)C2C[C@@]1(C)Oc1ccccc12 (some centres not stated) | > 100 | > 100 | > 100 | > 100 | > 100 | > 100 | > 100 |
| O=C(/C=C/c1ccccc1Br)c1ccccc1 | 25.3 | 3.73 | 32.4 | 16.3 | 30.5 | 9.83 | 23.6 |
| C=C1C(=O)OC2/C=C(\C)CC/C=C(\C)CC(OC(=O)/C(=C/CO)CO)[C@@H]12 (some centres not stated) | 57.3 | 19.3 | 13.5 | 48.8 | > 100 | 15.8 | 34.2 |
| CN(C)c1cccc(/C=C(\C#N)c2ccccc2)c1 | > 79.9 | > 100 | 39.1 | 12.5 | > 49.9 | 56.6 | > 100 |
| CCN(CC)c1ccc2cc(-c3csc(C)n3)c(=O)oc2c1 | > 100 | > 100 | 92.7 | > 100 | > 100 | > 100 | > 100 |
| Cc1ccc(S(=O)(=O)NC(=O)NCC(N)=O)cc1 | > 100 | > 100 | > 100 | > 100 | > 100 | > 100 | > 100 |
| Cc1ccc(S(=O)(=O)OI(O)CC(F)(F)F)cc1 | > 100 | > 100 | > 100 | > 100 | > 100 | > 100 | > 100 |
| N/N=C(/CC(O)(C(F)(F)F)C(F)(F)F)c1ccccc1 | > 10 | > 10 | > 10 | > 10 | > 10 | > 10 | > 10 |
| CC(C)(C)CN1[C@@H]2CCCC[C@H]2N(CC(C)(C)C)P1(=O)C(O)/C=C/c1ccccc1 (some centres not stated) | > 100 | 93.7 | 67 | 85.3 | > 100 | > 100 | > 100 |
| COc1cccc(N2C(=O)C3c4[nH]c5ccc(C)cc5c4C4CCC(C)CC4C3C2=O)c1 (configuration not stated) | > 100 | > 100 | > 100 | > 100 | > 100 | > 100 | > 100 |
| CN(C(=O)c1cc2c(s1)sc1c(=O)n(C)c3ccccc3c12)c1ccccc1 | > 100 | 66.6 | > 100 | 83.3 | > 100 | > 100 | > 100 |
| CC1=NN(C(=O)CC(=O)Nc2ccc(Cl)cc2)C(=O)C1N=Nc1ccc(S(=O)(=O)c2ccc(N=NC3C(=O)N(C(=O)CC(=O)Nc4ccc(Cl)cc4)N=C3C)cc2)cc1 (configuration not stated) | > 100 | > 100 | > 100 | > 100 | > 100 | 79.1 | > 100 |
| CC(C)(C)Cc1cc(O)ccc1O | > 100 | > 100 | > 100 | > 100 | > 100 | > 100 | > 100 |
| COC(=O)C(CC(C)C)NC(=O)CNC(=O)C(Cc1ccc(OCc2ccccc2)cc1)NC(=O)C(COCc1ccccc1)NC(=O)OC(C)(C)C (configuration not stated) (Boc-S(Bn)Y(Bn)GL-OMe; configuration not given here) | > 100 | > 100 | > 100 | > 100 | > 100 | > 100 | > 100 |
| N#CCCN(CCCN(C(=O)Nc1ccc(NC(=O)N(CCCN(CCC#N)C(N)=O)c2ccccc2)cc1)c1ccccc1)C(N)=O | > 100 | > 100 | > 100 | > 100 | > 100 | > 100 | > 100 |
| CC(C(=O)O)C1Nc2ccccc2NC1=O (configuration not stated) | > 100 | > 100 | > 100 | > 100 | > 100 | > 100 | > 100 |
| COC(=O)C1Cc2c([nH]c3ccccc23)-c2[nH]c3ccccc3c2CC(NC(C)=O)C(=O)NCC(=O)NCC(=O)N1 (configuration not stated) | > 100 | > 100 | > 100 | > 100 | > 100 | > 100 | > 100 |
| N#CCN1CCN(CC#N)CCN(CC#N)CCN(CC#N)CC1 | > 100 | > 100 | > 100 | > 100 | > 100 | > 100 | > 100 |
| Nc1ncc(N)c(NCC2(CO)CC(CCc3ccccc3)C2)n1 (configuration not stated) | 28.8 | 24.5 | 11.5 | 30.5 | 25.4 | 25.1 | 21.1 |
| Oc1ccc2ccccc2c1NCn1nc(CCCCCCCCc2nn(CNc3c(O)ccc4ccccc34)c(=S)o2)oc1=S | > 100 | > 100 | > 100 | > 100 | > 100 | > 100 | > 100 |
